Assay [1] deals with T1, human TYK2 kinase domain (JH1) (Homo sapiens, UniProt P29597).
T1 construct: recombinantly generated catalytic kinase (also known as JH1) domain of human JAK1, JAK2, JAK3 and TYK2
T1 sequence (P29597 897-1176 limits assumed): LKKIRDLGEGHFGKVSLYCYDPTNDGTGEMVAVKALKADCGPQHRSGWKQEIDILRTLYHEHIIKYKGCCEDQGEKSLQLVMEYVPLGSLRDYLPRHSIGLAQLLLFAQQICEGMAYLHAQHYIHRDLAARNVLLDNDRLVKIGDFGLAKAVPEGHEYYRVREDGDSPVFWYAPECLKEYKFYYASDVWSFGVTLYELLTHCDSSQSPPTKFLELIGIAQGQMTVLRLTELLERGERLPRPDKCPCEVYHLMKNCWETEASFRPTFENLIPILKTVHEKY
The assay is described as follows: JH1 biochemical assay for TYK2 (ADP-Glo kinase assay, recombinant JH1 catalytic domain, JAK3-974 peptide, 10 μM ATP). Conditions: JH1 kinase domain, ADP-Glo. The method in brief: (§1)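 ADP-Glo luminescence with 50 μM peptide and 100 min reactions: JAK1 4 nM with JAK3-342 peptide; JAK2, JAK3 and TYK2 at 0.2, 0.3 and 2 nM with JAK3-974 peptide. Compounds tested from 10 or 1 μM top, 11 points, 3-fold. IC50 from a 4-parameter logistic fit of normalized activity.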
(In ADP-Glo the light output rises with the ADP produced.)

In assay [2] the target is Tyk2 kinase activity on STAT4 in NK92 cells (Homo sapiens, UniProt P29597). The experiment in a line: pSTAT4 cell assay (MSD; NK92 cells, 30 ng/mL IL2 stimulation). Type of assay: cell-based. Conditions: 30 ng/mL IL2, 15 minutes. The method in brief: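 NK92, serum-starved; cpd 1 hr, 10-pt 4-fold from 10 μM; IL2 30 ng/mL 15 min; lyse; MSD with anti-STAT4 Abs; IC50 by 4-PL fit.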
Sequence of Tyk2 kinase activity on STAT4 in NK92 cells (P29597 whole entry): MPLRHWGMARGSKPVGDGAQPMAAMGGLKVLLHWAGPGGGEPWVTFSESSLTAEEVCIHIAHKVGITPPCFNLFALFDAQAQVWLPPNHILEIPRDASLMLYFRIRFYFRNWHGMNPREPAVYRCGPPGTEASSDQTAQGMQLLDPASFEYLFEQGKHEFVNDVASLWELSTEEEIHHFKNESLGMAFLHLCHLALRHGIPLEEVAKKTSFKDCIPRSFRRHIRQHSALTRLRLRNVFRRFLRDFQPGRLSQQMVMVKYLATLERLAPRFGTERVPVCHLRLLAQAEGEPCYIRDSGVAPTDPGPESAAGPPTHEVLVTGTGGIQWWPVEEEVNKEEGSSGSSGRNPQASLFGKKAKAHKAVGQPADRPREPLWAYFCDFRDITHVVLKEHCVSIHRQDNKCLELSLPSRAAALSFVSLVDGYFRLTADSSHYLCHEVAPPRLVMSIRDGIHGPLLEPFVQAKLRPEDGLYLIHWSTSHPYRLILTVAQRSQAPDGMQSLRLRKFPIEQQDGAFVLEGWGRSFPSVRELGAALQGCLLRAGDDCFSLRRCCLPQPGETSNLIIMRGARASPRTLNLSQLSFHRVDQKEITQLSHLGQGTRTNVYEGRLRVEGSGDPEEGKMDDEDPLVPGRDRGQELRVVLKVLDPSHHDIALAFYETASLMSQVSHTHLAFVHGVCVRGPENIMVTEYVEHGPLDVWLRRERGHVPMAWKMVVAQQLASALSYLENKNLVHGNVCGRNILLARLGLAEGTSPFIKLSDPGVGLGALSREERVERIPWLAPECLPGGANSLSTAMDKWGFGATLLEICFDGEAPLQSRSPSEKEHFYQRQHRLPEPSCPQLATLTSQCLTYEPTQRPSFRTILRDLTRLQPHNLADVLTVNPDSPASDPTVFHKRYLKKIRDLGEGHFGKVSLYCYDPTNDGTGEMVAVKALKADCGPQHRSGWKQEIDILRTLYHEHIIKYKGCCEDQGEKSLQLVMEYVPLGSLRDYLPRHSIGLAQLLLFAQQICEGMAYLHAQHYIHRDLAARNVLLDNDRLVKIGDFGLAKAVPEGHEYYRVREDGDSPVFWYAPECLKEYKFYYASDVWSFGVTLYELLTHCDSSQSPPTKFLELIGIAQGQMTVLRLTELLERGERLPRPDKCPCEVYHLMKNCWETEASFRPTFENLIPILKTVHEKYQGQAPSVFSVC

In assay [3] the target is T2, human JAK1 kinase domain (JH1) (Homo sapiens, UniProt P23458).
T2 construct: recombinantly generated catalytic kinase (also known as JH1) domain of human JAK1, JAK2, JAK3 and TYK2
T2 sequence (P23458 875-1153 limits assumed): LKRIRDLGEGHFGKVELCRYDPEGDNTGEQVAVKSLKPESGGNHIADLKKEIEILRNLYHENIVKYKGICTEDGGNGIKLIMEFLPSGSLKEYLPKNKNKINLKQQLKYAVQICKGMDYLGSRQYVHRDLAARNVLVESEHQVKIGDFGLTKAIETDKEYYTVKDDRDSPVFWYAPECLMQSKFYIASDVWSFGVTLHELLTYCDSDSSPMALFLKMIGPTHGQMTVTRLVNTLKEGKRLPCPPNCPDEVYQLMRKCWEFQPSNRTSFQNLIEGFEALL
The experiment in a line: JH1 biochemical assay for JAK1 (ADP-Glo kinase assay, recombinant JH1 catalytic domain, JAK3-342 peptide, 35 μM ATP). The note with it: JH1 kinase domain, ADP-Glo. In short, it runs like this:
as §1

The target of assay [4] is JAK1 kinase activity on STAT3 in TF1 cells (Homo sapiens, UniProt P23458). The assay is described as follows: pSTAT3 cell assay (MSD; TF1 cells, 30 ng/mL IL-6 stimulation). Format: cell-based. Conditions: 30 ng/mL IL-6, 15 minutes. The method in brief: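 Serum-starved TF1 cells with endogenous JAK1/STAT3 were pretreated 1 h with compound in a 10-point four-fold dilution series from 10 μM, then stimulated with 30 ng/mL IL-6 for 15 min. pSTAT3 in lysates was quantified by MSD immunoassay, and IC50 came from 4-parameter logistic fits.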
Sequence of JAK1 kinase activity on STAT3 in TF1 cells (P23458 whole entry): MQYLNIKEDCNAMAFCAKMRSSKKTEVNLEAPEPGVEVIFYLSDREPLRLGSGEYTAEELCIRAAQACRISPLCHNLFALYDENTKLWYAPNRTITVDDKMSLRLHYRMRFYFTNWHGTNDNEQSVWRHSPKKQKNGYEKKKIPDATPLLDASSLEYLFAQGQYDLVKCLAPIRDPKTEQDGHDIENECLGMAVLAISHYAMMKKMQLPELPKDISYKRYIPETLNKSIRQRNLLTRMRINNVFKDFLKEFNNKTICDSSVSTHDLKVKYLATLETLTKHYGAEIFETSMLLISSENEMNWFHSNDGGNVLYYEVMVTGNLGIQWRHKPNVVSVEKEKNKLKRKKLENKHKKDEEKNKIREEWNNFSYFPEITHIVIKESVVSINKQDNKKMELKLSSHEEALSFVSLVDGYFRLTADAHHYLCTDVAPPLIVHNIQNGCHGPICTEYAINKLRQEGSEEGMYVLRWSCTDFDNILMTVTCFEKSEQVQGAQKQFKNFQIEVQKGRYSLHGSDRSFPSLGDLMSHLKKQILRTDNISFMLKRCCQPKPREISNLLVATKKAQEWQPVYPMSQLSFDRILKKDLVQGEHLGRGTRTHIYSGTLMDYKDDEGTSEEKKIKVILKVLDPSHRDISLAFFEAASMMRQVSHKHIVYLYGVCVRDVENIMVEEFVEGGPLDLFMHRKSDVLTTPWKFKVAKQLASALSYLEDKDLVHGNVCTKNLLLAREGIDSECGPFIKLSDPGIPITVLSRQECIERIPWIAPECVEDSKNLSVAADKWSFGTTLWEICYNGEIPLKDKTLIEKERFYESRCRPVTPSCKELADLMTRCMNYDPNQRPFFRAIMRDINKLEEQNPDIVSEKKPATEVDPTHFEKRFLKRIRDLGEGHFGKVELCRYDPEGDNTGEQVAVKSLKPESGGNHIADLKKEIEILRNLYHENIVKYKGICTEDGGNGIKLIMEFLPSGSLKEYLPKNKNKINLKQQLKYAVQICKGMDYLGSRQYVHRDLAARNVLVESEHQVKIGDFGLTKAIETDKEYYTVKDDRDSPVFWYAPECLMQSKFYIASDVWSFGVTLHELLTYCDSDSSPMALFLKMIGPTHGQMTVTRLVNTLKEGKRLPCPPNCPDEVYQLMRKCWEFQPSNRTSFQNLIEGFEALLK

Assay [5] deals with JAK2 kinase activity on STAT5 in TF1 cells (Homo sapiens, UniProt O60674). The experiment in a line: pSTAT5 cell assay (MSD; TF1 cells, 30 ng/mL IL-3 stimulation). Format: cell-based. The note with it: 30 ng/mL IL-3, 15 minutes. In short, it runs like this: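 Serum-starved TF1 cells with native JAK2/STAT5 were pretreated 1 h with compound (10-point four-fold dilutions from 10 μM), then stimulated 15 min with 30 ng/mL IL-3. pSTAT5 in lysates quantified by MSD immunoassay; normalized percent activity fitted to a 4-parameter logistic curve for IC50.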
Sequence of JAK2 kinase activity on STAT5 in TF1 cells (O60674 whole entry): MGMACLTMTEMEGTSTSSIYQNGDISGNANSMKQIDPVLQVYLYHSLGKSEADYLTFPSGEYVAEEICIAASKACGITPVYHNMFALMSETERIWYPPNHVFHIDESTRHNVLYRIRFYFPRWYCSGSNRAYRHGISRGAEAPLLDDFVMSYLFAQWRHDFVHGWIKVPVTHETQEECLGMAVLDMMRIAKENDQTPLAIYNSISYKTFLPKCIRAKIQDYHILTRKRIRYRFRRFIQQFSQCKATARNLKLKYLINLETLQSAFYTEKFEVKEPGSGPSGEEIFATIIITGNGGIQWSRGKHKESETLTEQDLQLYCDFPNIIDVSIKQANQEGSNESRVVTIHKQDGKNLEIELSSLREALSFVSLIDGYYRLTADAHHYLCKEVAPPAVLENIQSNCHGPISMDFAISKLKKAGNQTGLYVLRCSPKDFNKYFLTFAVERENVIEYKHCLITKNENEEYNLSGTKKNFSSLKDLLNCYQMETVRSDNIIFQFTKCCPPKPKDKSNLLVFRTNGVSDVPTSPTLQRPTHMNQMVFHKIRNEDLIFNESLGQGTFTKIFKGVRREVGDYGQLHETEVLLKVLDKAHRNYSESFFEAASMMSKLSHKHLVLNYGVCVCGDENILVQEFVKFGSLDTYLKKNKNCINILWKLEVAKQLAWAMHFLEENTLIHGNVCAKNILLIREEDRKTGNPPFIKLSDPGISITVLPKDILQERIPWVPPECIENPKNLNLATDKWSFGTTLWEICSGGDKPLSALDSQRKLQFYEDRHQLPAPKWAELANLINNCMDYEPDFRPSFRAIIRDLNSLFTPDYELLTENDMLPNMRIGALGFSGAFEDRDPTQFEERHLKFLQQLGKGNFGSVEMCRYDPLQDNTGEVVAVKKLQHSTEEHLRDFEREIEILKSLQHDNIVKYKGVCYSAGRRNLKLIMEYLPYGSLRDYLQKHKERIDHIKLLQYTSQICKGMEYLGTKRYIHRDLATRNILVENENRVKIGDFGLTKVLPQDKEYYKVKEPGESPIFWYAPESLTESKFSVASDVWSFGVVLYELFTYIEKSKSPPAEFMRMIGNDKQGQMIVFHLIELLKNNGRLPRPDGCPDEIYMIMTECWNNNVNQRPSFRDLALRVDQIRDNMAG

Assay [6] concerns the target T3, human JAK2 kinase domain (JH1) (Homo sapiens, UniProt O60674).
T3 construct: recombinantly generated catalytic kinase (also known as JH1) domain of human JAK1, JAK2, JAK3 and TYK2
The assay is described as follows: JH1 biochemical assay for JAK2 (ADP-Glo kinase assay, recombinant JH1 catalytic domain, JAK3-974 peptide, 15 μM ATP). The note with it: JH1 kinase domain, ADP-Glo. The method in brief: as §1

Assay [7] deals with T4, human JAK3 kinase domain (JH1) (Homo sapiens, UniProt P52333).
T4 construct: recombinantly generated catalytic kinase (also known as JH1) domain of human JAK1, JAK2, JAK3 and TYK2
T4 sequence (P52333 822-1111 limits assumed): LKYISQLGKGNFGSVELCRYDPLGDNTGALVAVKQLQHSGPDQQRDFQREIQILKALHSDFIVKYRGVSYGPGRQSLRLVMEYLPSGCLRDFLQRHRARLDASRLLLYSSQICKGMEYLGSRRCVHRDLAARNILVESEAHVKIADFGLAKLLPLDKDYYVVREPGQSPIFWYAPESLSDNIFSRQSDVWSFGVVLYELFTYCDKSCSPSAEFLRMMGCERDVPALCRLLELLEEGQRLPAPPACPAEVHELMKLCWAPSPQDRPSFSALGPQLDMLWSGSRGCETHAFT
The experiment in a line: JH1 biochemical assay for JAK3 (ADP-Glo kinase assay, recombinant JH1 catalytic domain, JAK3-974 peptide, 4 μM ATP). The note with it: JH1 kinase domain, ADP-Glo. The method in brief:
as §1

pIC50: −log10 of the molar value. Counter-ions that a name gives are not always drawn. A value given as a limit tells only on which side of the number the result lay.

T3 sequence (O60674 849-1124 limits assumed): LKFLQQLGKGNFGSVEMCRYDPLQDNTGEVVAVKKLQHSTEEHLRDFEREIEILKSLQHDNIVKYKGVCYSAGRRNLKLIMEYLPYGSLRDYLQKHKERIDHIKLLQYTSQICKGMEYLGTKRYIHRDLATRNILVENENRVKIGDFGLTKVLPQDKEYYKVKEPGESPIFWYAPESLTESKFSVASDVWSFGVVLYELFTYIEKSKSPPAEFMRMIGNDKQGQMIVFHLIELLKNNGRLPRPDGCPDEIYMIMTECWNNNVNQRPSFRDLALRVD

As a reminder, the pIC50 is the IC50 on a negative log10 scale, so that one unit is a factor of ten. As to `C[C@@H]1CN(c2ccnn3cc(-c4ccc(=O)n(C)c4)cc23)C(=O)[C@]1(C#N)C1CC1` [Example 83, (3R,4S)-3-cyclopropyl-4-methyl-1-(6-(1-methyl-6-oxo-1,6-dihydropyridin-3-yl)pyrrolo[1,2-b]pyridazin-4-yl)-2-oxopyrrolidine-3-carbonitrile], the pIC50 in assay [1] was > 8.30; in assay [2], 7.00 to 7.30; in assay [3], > 7.00; in assay [4], 5.30 to 6.00; in assay [5] it was 5.00 to 5.30; in assay [6], 6.00 to 7.00. Moreover, the negative-log IC50 (pIC50) in assay [7] is 6.00 to 7.00.

Consider `C[C@@H]1CN(c2ccnn3cc(-c4cncc(F)c4)cc23)C(=O)[C@]1(C#N)C1CC1` [Example 84, (3R,4S)-3-cyclopropyl-1-(6-(5-fluoropyridin-3-yl)pyrrolo[1,2-b]pyridazin-4-yl)-4-methyl-2-oxopyrrolidine-3-carbonitrile], for which the pIC50 in assay [1] was 7.70 to 8.30; in assay [2], < 7.00; in assay [3] it was 6.00 to 7.00; in assay [4] it was 5.00 to 5.30; in assay [5], < 5.00; in assay [6] it was 5.30 to 6.00. In addition, the pIC50 in assay [7] is 6.00 to 7.00.

With `C[C@@H]1CN(c2ccnn3cc(-c4ccc(C#N)nc4)cc23)C(=O)[C@]1(C#N)C1CC1` [Example 86, 5-(4-((3R,4S)-3-cyano-3-cyclopropyl-4-methyl-2-oxopyrrolidin-1-yl)pyrrolo[1,2-b]pyridazin-6-yl)picolinonitrile trifluoroacetate], the pIC50 in assay [1] is 7.70 to 8.30; in assay [2], < 7.00; in assay [3] it was 6.00 to 7.00; in assay [4] it was 5.00 to 5.30; in assay [5], < 5.00; in assay [6], 5.30 to 6.00. Moreover, the pIC50 in assay [7] is 6.00 to 7.00.

As for `C[C@@H]1CN(c2ccnn3cc(-c4ccc5nccn5c4)cc23)C(=O)[C@]1(C#N)C1CC1` [Example 88, (3R,4S)-3-cyclopropyl-1-(6-(imidazo[1,2-a]pyridin-6-yl)pyrrolo[1,2-b]pyridazin-4-yl)-4-methyl-2-oxopyrrolidine-3-carbonitrile], the pIC50 in assay [1] is > 8.30; in assay [2] it was 7.30 to 7.70; in assay [3], > 7.00; in assay [4], 6.00 to 7.00; in assay [5], 5.30 to 6.00; in assay [6], 6.00 to 7.00. Also, the pIC50 in assay [7] is 6.00 to 7.00.

On to `CC(=O)Nc1cncc(-c2cc3c(N4C[C@@H](C)[C@@](C#N)(C5CC5)C4=O)ccnn3c2)c1` [Example 90, N-(5-(4-((3R,4S)-3-cyano-3-cyclopropyl-4-methyl-2-oxopyrrolidin-1-yl)pyrrolo[1,2-b]pyridazin-6-yl)pyridin-3-yl)acetamide], for which the pIC50 in assay [1] is 7.70 to 8.30; in assay [2], < 7.00; in assay [3], 6.00 to 7.00; in assay [4], 5.00 to 5.30; in assay [5], < 5.00; in assay [6], 6.00 to 7.00. Besides, the pIC50 in assay [7] is 6.00 to 7.00.

For the compound `C[C@@H]1CN(c2ccnn3cc(-c4ccnc(C#N)c4)cc23)C(=O)[C@]1(C#N)C1CC1` [Example 93, 4-(4-((3R,4S)-3-cyano-3-cyclopropyl-4-methyl-2-oxopyrrolidin-1-yl)pyrrolo[1,2-b]pyridazin-6-yl)picolinonitrile], the pIC50 in assay [1] was 7.70 to 8.30; in assay [2], < 7.00; in assay [3], 6.00 to 7.00; in assay [4] it was 5.00 to 5.30; in assay [5] it was < 5.00; in assay [6], 6.00 to 7.00. In addition, in assay [7], the pIC50 is 6.00 to 7.00.

For the compound `COc1ncccc1-c1cc2c(N3C[C@@H](C)[C@@](C#N)(C4CC4)C3=O)ccnn2c1` [Example 96, (3R,4S)-3-cyclopropyl-1-(6-(2-methoxypyridin-3-yl)pyrrolo[1,2-b]pyridazin-4-yl)-4-methyl-2-oxopyrrolidine-3-carbonitrile], the pIC50 was 7.70 to 8.30 in assay [1]; < 7.00 in assay [2]; 5.30 to 6.00 in assay [3]; < 5.00 in assay [4]; < 5.00 in assay [5]; 5.30 to 6.00 in assay [6]. For the same compound, in assay [7], the pIC50 is 5.30 to 6.00.

Take `C[C@@H]1CN(c2ccnn3cc(-c4cnn(C5COC5)c4)cc23)C(=O)[C@]1(C#N)C1CC1` [Example 97, (3R,4S)-3-cyclopropyl-4-methyl-1-(6-(1-(oxetan-3-yl)-1H-pyrazol-4-yl)pyrrolo[1,2-b]pyridazin-4-yl)-2-oxopyrrolidine-3-carbonitrile]: the pIC50 in assay [1] is > 8.30; in assay [2] it was 7.30 to 7.70; in assay [3] it was > 7.00; in assay [4], 5.30 to 6.00; in assay [5], 5.30 to 6.00; in assay [6], > 7.00. In addition, the pIC50 in assay [7] is > 7.00.

Consider `C[C@@H]1CN(c2ccnn3cc(-c4cnc(C(F)F)s4)cc23)C(=O)[C@]1(C#N)C1CC1` [Example 101, (3R,4S)-3-cyclopropyl-1-(6-(2-(difluoromethyl)thiazol-5-yl)pyrrolo[1,2-b]pyridazin-4-yl)-4-methyl-2-oxopyrrolidine-3-carbonitrile trifluoroacetate], for which the pIC50 in assay [1] was 7.70 to 8.30; in assay [2] it was < 7.00; in assay [3], 6.00 to 7.00; in assay [4] it was 5.30 to 6.00; in assay [5] it was < 5.00; in assay [6], 6.00 to 7.00. Further, the pIC50 in assay [7] is 6.00 to 7.00.

Take `C[C@@H]1CN(c2ccnn3cc(-c4nc5cnccc5s4)cc23)C(=O)[C@]1(C#N)C1CC1` [Example 102, (3R,4S)-3-cyclopropyl-4-methyl-2-oxo-1-(6-(thiazolo[4,5-c]pyridin-2-yl)pyrrolo[1,2-b]pyridazin-4-yl)pyrrolidine-3-carbonitrile trifluoroacetate]: the pIC50 was 7.70 to 8.30 in assay [1]; < 7.00 in assay [2]; 6.00 to 7.00 in assay [3]; 5.00 to 5.30 in assay [4]; < 5.00 in assay [5]; 5.30 to 6.00 in assay [6]. Besides, in assay [7], the pIC50 was 6.00 to 7.00.

Turning to `C[C@@H]1CN(c2ccnn3cc(-c4cnc5cc(C#N)ccn45)cc23)C(=O)[C@]1(C#N)C1CC1` [Example 103, 3-(4-((3R,4S)-3-cyano-3-cyclopropyl-4-methyl-2-oxopyrrolidin-1-yl)pyrrolo[1,2-b]pyridazin-6-yl)imidazo[1,2-a]pyridine-7-carbonitrile trifluoroacetate], the pIC50 was 7.70 to 8.30 in assay [1]; < 7.00 in assay [2]; < 5.00 in assay [3]; < 5.00 in assay [4]; < 5.00 in assay [5]; < 5.00 in assay [6]. The pIC50 in assay [7] was < 5.00.

As to `C[C@@H]1CN(c2ccnn3cc(-c4cc5ccccn5n4)cc23)C(=O)[C@]1(C#N)C1CC1` [Example 104, (3R,4S)-3-cyclopropyl-4-methyl-2-oxo-1-(6-(pyrazolo[1,5-a]pyridin-2-yl)pyrrolo[1,2-b]pyridazin-4-yl)pyrrolidine-3-carbonitrile trifluoroacetate], the pIC50 in assay [1] is > 8.30; in assay [2], < 7.00; in assay [3], 6.00 to 7.00; in assay [4] it was 5.30 to 6.00; in assay [5], 5.00 to 5.30; in assay [6] it was 6.00 to 7.00. For the same compound, in assay [7], the pIC50 is 6.00 to 7.00.

These data come from patent US20260297085A1, “1 H-PYRROLO[2,3-B]PYRIDIN-4-YL]-2-OXOPYRROLIDINE-3-CARBONITRILE DERIVATIVES AS TYROSINE KINASE 2 (TYK2) INHIBITORS FOR THE TREATMENT OF INFLAMMATORY DISEASES” (BIOGEN MA INC., priority 2023, published 2026).
